{"source": "patent US4618687A", "about": "“Cyclopentenone compound and process for production thereof” (Kyowa Hakko Kogyo Co., Ltd., priority 1984, dated 1986)", "tested_on": "HeLa S3 cells", "test": "Growth inhibitory effect on HeLa cells", "format": "cell-based", "details": "96 h; for Cell count, average ± standard deviation: three runs, control 732 ± 24", "method": "Growth inhibitory effect on HeLa cells\nCultured HeLa S3 cells are suspended in an MEM medium (containing 10% bovine fetus serum and 6 mg/100 ml kanamycin) at a concentration of 5×10^4 cells/ml, 1 ml each of the cell suspension is pipetted in 24-hole multi-dishes, and the cells are cultured in a carbon dioxide cultivator with 5% CO2 at 37° C. for 24 hours. Then, 0.1 ml each of drug solutions prepared at predetermined concentrations are added to each dish. Then, the cells are further cultured in the carbon dioxide cultivator for 96 hours. After the culturing, the culture liquor is removed from the dishes, and then 1 ml of PBS [physiological saline solution containing a phosphate buffer (pH 7.2)]is added to the dishes to gently wash the cell surfaces. Then, PBS is removed from the dishes. Then, 1 ml of PBS containing 0.05% trypsin and 0.02% EDTA is added to each dish. The dishes are left standing at room temperature for about 15 minutes. Adhered cells are peeled off, and 0.5 ml of the cell suspension is added to 10 ml of an isotonic solution. Cells are counted by a microcell counter to determine inhibition percent (%) against cell propagation of groups treated with the drug on the basis of the cell count of the control group. Linear expression showing a relationship between the concentration and the inhibition percent are obtained from the inhibition percent of the drug against the cell propagation at the respective concentration according to the least-squares method, and then the drug concentrations IC50 showing a 50% inhibition against the cell propagation are obtained from the linear expression."}
{"smiles": "O=C1C=CC2COC(O)CC12", "note": "(stereo not drawn) [compound (I), 4-hydroxy-3-oxabicyclo [4.3.0]nona-8-en-7-on]", "values": [{"measurement": "Cell count, average ± standard deviation", "setting": "1 μg/ml", "value": "697 ± 58 × 10^3 cells/ml"}, {"measurement": "Cell count, average ± standard deviation", "setting": "3 μg/ml", "value": "784 ± 42 × 10^3 cells/ml"}, {"measurement": "Cell count, average ± standard deviation", "setting": "5 μg/ml", "value": "454 ± 21 × 10^3 cells/ml"}, {"measurement": "Cell count, average ± standard deviation", "setting": "10 μg/ml", "value": "7.1 ± 2.1 × 10^3 cells/ml"}, {"measurement": "inhibition at 1 µg/mL", "setting": "Homo sapiens, HeLa S3, 1 μg/ml, read-out: Inhibition percent against cell propagation", "value": 4.8, "unit": "%"}, {"measurement": "inhibition at 3 µg/mL", "setting": "Homo sapiens, HeLa S3, 3 μg/ml, read-out: Inhibition percent against cell propagation", "value": -7, "unit": "%"}, {"measurement": "inhibition at 5 µg/mL", "setting": "Homo sapiens, HeLa S3, 5 μg/ml, read-out: Inhibition percent against cell propagation", "value": 38, "unit": "%"}, {"measurement": "inhibition at 10 µg/mL", "setting": "Homo sapiens, HeLa S3, 10 μg/ml, read-out: Inhibition percent against cell propagation", "value": 99, "unit": "%"}, {"measurement": "IC50", "setting": "Homo sapiens, HeLa S3, 50% inhibition against cell propagation, linear least-squares", "value": 5.73, "unit": "mg/L"}]}
